This experiment addresses T1, Human recombinant full-length MNK1 protein (Homo sapiens, UniProt Q9BUB5).
T1 construct: Human recombinant full-length MNK1 protein; purchased Thermo PR9138A
Briefly: MNK1 inhibitory activity assay (ADP-Glo in vitro kinase assay). The note with it: 10 concentration points. The format is biochemical. As to the method:
MNK1 Inhibitory Activity Assay: Evaluation of the effects of compounds of the invention on […] (MNK1) activity using in vitro kinase assays. The experimental methods are summarized as follows: The in vitro activity of MNK1 was determined by measuring the level of ADP produced in the kinase reaction using the ADP-Glo Kinase Assay Kit. The reaction buffer consisted of the following components: 50 mM HEPES, pH 7.5, 10 mM MgCl2, 1 mM EGTA, 0.01% Brij35. Human recombinant full-length MNK1 protein (Thermo, Cat. No. PR9138A) was diluted with a reaction buffer to a 3.13 ng/uL kinase solution. The substrate reaction solution consisted of a substrate diluted to 0.75 mg/ml in reaction buffer ([…], available from […] Domestic Company), 2250 uM ATP, the ADP-Glo reagent and kinase assay solution from Promega kit (Promega, V9102). […] If the compound IC50 value is very low, the initial concentration of the compound can be lowered. To a 384-well assay plate (Thermo, Cat. No. 264706) were added 1 uL of compound solution and 2 uL of MNK1 kinase solution. The mixture was mixed well and incubated for 30 minutes at room temperature; then 2 uL of substrate reaction solution was added, the reaction mixture was incubated for 120 minutes at room temperature. The reaction was terminated after an equal volume of 5uLADP-Glo solution was added, and the remaining ATP was completely consumed. After mixing for 60 minutes at room temperature, 10 ul of the kinase assay solution was added, and the mixture was uniformly mixed, and allowed to stand at room temperature for 40 minutes in the dark. The detection solution converts ADP into new ATP through coupled luciferase/luciferin, and ATP is converted into optical signal by Ultr-GloTM luciferase, which can be detected by Envision. The intensity of the light signal is proportional correlated with the amount of ADP produced in the kinase reaction, therefore, the activity of MNK1 kinase can be determined. In this experiment, the group without protein was used as a negative control (100% inhibition). The group with protein but without compounds was used as a positive control (0% inhibition).
(In general: In ADP-Glo the light output rises with the ADP produced.)

Where a name gives a salt, the structure may show the parent alone.

T1 sequence (Q9BUB5 whole entry): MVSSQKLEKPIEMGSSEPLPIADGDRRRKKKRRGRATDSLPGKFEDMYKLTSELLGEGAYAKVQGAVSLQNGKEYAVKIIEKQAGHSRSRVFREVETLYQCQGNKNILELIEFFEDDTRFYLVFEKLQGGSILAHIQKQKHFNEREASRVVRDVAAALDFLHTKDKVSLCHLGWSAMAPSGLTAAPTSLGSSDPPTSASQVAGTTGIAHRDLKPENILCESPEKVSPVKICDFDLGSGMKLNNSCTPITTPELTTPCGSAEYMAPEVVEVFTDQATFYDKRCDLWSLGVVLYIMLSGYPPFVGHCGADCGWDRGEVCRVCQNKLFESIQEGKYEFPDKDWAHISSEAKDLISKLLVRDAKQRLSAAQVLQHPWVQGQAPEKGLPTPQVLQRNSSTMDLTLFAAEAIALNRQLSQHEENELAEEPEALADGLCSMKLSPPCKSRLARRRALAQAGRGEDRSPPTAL

As for `COc1cc2c(cnn2C(=O)OC(C)(C)C)cc1Nc1cc(NC(C)=O)ncn1` [Compound 1, 1-tert-Butoxycarbonyl-5-(6-acetylaminopyrimidin-4-ylamino)-6-methoxyindazole], the 50% inhibitory concentration (IC50) – broadly, the point on the concentration scale where inhibition reaches its midpoint – came out at 15.5 nM.
The result for `COc1cc2[nH]ncc2cc1Nc1cc(NC(C)=O)ncn1` [Compound 2, 5-(6-Acetylaminopyrimidin-4-ylamino)-6-methoxy-1H-indazole] reads 59.5 nM; that for `COc1cc2c(cnn2C(=O)OC(C)(C)C)cc1Nc1cc(NC(=O)C2CC2)ncn1` [Compound 3, 1-tert-Butoxycarbonyl-5-(6-cyclopropionamidopyrimidin-4-ylamino)-6-methoxyindazole], 11.3 nM; that for `COc1cc2c(cnn2C)cc1Nc1cc(NC(=O)C2CC2)ncn1` [Compound 5, 5-(6-Cyclopropionamidopyrimidin-4-ylamino)-6-methoxyl-methylindazole formate], 585 nM.
The result for `CCOc1cc2[nH]ncc2cc1Nc1cc(NC(=O)C2CC2)ncn1` [Compound 6, 5-(6-Cyclopropionamidopyrimidin-4-ylamino)-6-ethoxy-1H-indazole] reads 29.8 nM; that for `CC(C)Oc1cc2[nH]ncc2cc1Nc1cc(NC(=O)C2CC2)ncn1` [Compound 7, 5-(6-cyclopropionamidopyrimidin-4-ylamino)-6-isopropoxy-1H-indazole formate], 44.9 nM; that for `COc1cc2c(cnn2C(=O)C2CCCCC2)cc1Nc1cc(NC(=O)C2CC2)ncn1` [Compound 8, 1-Cyclohexanoyl-5-(6-cyclopropionamidopyrimidin-4-ylamino)-6-methoxyindazole], 64.1 nM.
The result for `COc1cc2[nH]ncc2cc1Nc1cc(N)ncn1` [Compound 9, 5-(6-aminopyrimidin-4-ylamino)-6-methoxy-1H-indazole] reads 294 nM; that for `COc1cc2[nH]ncc2cc1Nc1cc(NC(=O)c2ccccc2)ncn1` [Compound 10, 5-(6-benzoylaminopyrimidin-4-ylamino)-6-methoxy-1H-indazole], 23.8 nM; that for `COc1cc2[nH]ncc2cc1Nc1cc(NC(=O)c2ccccn2)ncn1` [Compound 11, 5-(6-(2-Pyridine) formylaminopyrimidin-4-ylamino)-6-methoxy-1H-indazole], 532 nM.
Turning to `COc1cc2[nH]ncc2cc1Nc1cc(NC(=O)C(C)(C)C)ncn1` [Compound 12, 5-(6-Pivaloylaminopyrimidin-4-ylamino)-6-methoxy-1H-indazole], the IC50 was found to be 729 nM.
As for `COc1cc2c(cnn2C(=O)C(C)C)cc1Nc1cc(NC(=O)C2CC2)ncn1` [Compound 13, 1-Isobutyryl-5-(6-cyclopropionamidopyrimidin-4-ylamino)-6-methoxyindazole], the 50% inhibitory concentration (IC50) came to 225 nM.
With `COc1cc2c(cnn2C(=O)C2CC2)cc1Nc1cc(NC(=O)C2CC2)ncn1` [Compound 14, 1-Cyclopropanoyl-5-(6-cyclopropionamidopyrimidin-4-ylamino)-6-methoxyindazole], the IC50 stood at 1110 nM.
The result for `COc1cc2nn(C(=O)C3CC3)cc2cc1Nc1cc(NC(=O)C2CC2)ncn1` [Compound 15, 2-Cyclopropanoyl-5-(6-cyclopropionamidopyrimidin-4-ylamino)-6-methoxyindazole] reads 21 nM; that for `COC(=O)n1ncc2cc(Nc3cc(NC(=O)C4CC4)ncn3)c(OC)cc21` [Compound 17, 1-Methoxyacyl-5-(6-cyclopropionamidopyrimidin-4-ylamino)-6-methoxyindazole], 27.9 nM.
Next, `CCOC(=O)n1ncc2cc(Nc3cc(NC(=O)C4CC4)ncn3)c(OC)cc21` [Compound 18, 1-Ethoxyacyl-5-(6-cyclopropionamidopyrimidin-4-ylamino)-6-methoxyindazole]: 10.5 nM.
The result for `COc1cc2[nH]ncc2cc1Nc1cc(NC(=O)C(C)C)ncn1` [Compound 19, N-(6-((6-Methoxy-1H-indazol-5-yl)amino)pyrimidin-4-yl)isobutyramide] reads 45 nM.
Regarding `COc1cc2[nH]ncc2cc1Nc1cc(Nc2ccccn2)ncn1` [Compound 20, 5-(6-(Pyridin-2-ylamino)pyrimidin-4-ylamino)-6-methoxy-1H-indazole formate], the half-inhibitory concentration (IC50) amounted to 29.2 nM.
Turning to `COc1cc2[nH]ncc2cc1Nc1cc(Nc2cc(Cl)ccn2)ncn1` [Compound 21, 5-(6-((4-Chloropyridin-2-yl)amino)pyrimidin-4-ylamino)-6-methoxy-1H-indazole], the IC50 turned out to be 78.2 nM.
With `COc1cc2[nH]ncc2cc1Nc1cc(Nc2ccncn2)ncn1` [Compound 22, 5-(6-(pyrimidin-4-ylamino)pyrimidin-4-ylamino)-6-methoxy-1H-indazole formate], the IC50 was determined as 23.3 nM.
Take `COc1cc2[nH]ncc2cc1Nc1cc(Nc2cccc(Cl)n2)ncn1` [Compound 23, 5-(6-((6-Chloropyridin-2-yl)amino)pyrimidin-4-ylamino)-6-methoxy-1H-indazole]: the 50% inhibitory concentration (IC50) stood at 31.3 nM.
Next, `COc1cc2[nH]ncc2cc1Nc1cc(Nc2ccc(Cl)cn2)ncn1` [Compound 24, 5-(6-((5-Chloropyridin-2-yl)amino)pyrimidin-4-ylamino)-6-methoxy-1H-indazole formate]: 42.2 nM; `COc1cc2[nH]ncc2cc1Nc1cc(Nc2cc(C(F)(F)F)ccn2)ncn1` [Compound 25, 5-(6-((4-(Trifluoromethyl)pyridin-2-yl)amino)pyrimidin-4-ylamino)-6-methoxy-1H-indazole]: 40 nM; `COc1cc2[nH]ncc2cc1Nc1cc(Nc2ncc(Cl)cn2)ncn1` [Compound 26, 5-(6-((5-chloropyrimidin-2-yl)amino)pyrimidin-4-ylamino)-6-methoxy-1H-indazole]: 36.6 nM.
Next, `COc1cc2[nH]ncc2cc1Nc1cc(Nc2ncccn2)ncn1` [Compound 27, 5-(6-(Pyrimidin-2-ylamino)pyrimidin-4-ylamino)-6-methoxy-1H-indazole]: 43.8 nM; `COc1cc2[nH]ncc2cc1Nc1cc(Nc2ncccc2Cl)ncn1` [Compound 28, 5-(6-((3-Chloropyridin-2-yl)amino)pyrimidin-4-ylamino)-6-methoxy-1H-indazole]: 539 nM; `COc1cc2[nH]ncc2cc1Nc1cc(Nc2cnccn2)ncn1` [Compound 29, 5-(6-(Pyrazin-2-ylamino)pyrimidin-4-ylamino)-6-methoxy-1H-indazole]: 57.9 nM.
Regarding `CNc1cc(Nc2cc3cn[nH]c3cc2OC)ncn1` [Compound 30, 5-(6-Methylaminopyrimidin-4-ylamino)-6-methoxy-1H-indazole], the IC50 was found to be 141 nM.
The result for `COc1cc2[nH]ncc2cc1Nc1cc(NC2CC2)ncn1` [Compound 31, 5-(6-Cyclopropylaminopyrimidin-4-ylamino)-6-methoxy-1H-indazole formate] reads 126 nM; that for `COc1cc2[nH]ncc2cc1Nc1ncnc(N)c1C1=CCC(C(=O)O)CC1` (stereo not shown) [Compound 32, 5-((6-Amino-5-cyclohex-3-ene-1-carboxypyrimidin-4-yl)amino)-6-methoxy-1H-indazole hydrochloride], 166 nM.
Consider `COc1cc2[nH]ncc2cc1Nc1ncnc(N)c1C1=CCC(C(=O)N2CCN(C)CC2)CC1` (stereo not shown) [Compound 33, 5-((6-Amino-5-cyclohex-3-en-1-yl (4-methylpiperazin-1-yl)methanylpyrimidin-4-yl)amino)-6-methoxy-1H-indazole formate], for which the half-inhibitory concentration (IC50) was found to be 94.7 nM.

Values taken from patent US20220289719A1, “HETEROCYCLIC COMPOUNDS AS MNK INHIBITORS” (NANJING INNOCARE PHARMA TECH CO., LTD., priority 2017, published 2022).
